Consider 14 compounds from patent publication US10092537B2, “Use for PAI-1 inhibitor” (RENASCIENCE CO., LTD., priority 2013, dated 2018).

human PAI-1, sequence (P05121 24-402): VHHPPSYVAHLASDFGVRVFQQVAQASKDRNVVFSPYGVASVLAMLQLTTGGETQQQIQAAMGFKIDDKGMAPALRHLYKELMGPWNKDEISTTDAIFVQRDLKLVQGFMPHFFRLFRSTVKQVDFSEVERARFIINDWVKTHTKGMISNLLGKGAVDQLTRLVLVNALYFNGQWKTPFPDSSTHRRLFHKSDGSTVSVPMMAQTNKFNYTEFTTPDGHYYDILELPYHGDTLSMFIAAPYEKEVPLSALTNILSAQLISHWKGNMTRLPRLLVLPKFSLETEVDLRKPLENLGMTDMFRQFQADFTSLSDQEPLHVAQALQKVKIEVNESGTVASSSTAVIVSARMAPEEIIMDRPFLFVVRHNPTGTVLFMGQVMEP

This test has as its target human PAI-1 (Homo sapiens, UniProt P05121). Briefly: Measurement of PAI-1 inhibitory activity of compound group 1 (t-PA, Spectrozyme t-PA chromogenic substrate). The note with it: read-out: PAI-1 activity %.
Protocol: Subsequently, human-derived tissue plasminogen activator (t-PA) (manufactured by American Diagnostica, Inc. (USA); the same applies hereinafter) adjusted to 0.05 pmol/μL was added thereto, and the mixture was further incubated at 37° C. for 60 minutes. Then, 0.25 mM of Spectrozyme t-PA synthetic substrate (manufactured by American Diagnostica, Inc. (USA); the same applies hereinafter), which is a chromogenic substrate, was added. The final mixture contained 50 mM Tris-HCl (pH 8), 150 mM NaCl, 1% DMSO, 0.1% PEG-6000, 0.2 mM CHAPS, 5 nM PAI-1, 2 nM t-PA, 0.2 mM Spectrozyme t-PA synthetic substrate, and each compound (10 μM or 2.5 μM).
Free radical p-nitroaniline removed from the chromogenic substrate (Spectrozyme t-PA) by t-PA action was measured using a spectrophotometer at an absorbance of 405 nm at 20-minute intervals, for 120 minutes.
Regarding `O=C(COc1cccc(-c2ccoc2)c1)Nc1ccc(Br)cc1C(=O)O` [Example 15, 5-bromo-2-({[3-(furan-3-yl)phenoxy]acetyl}amino)benzoic acid], the activity at 2.5 µM worked out at 87.3% and the activity at 10 µM was 3%.

Regarding `CC(C)(C)c1cccc(OCC(=O)Nc2ccc(Cl)cc2C(=O)O)c1` [Example 16, 2-{[(3-tert-butylphenoxy)acetyl]amino}-5-chlorobenzoic acid], the activity at 2.5 µM turned out to be 77.4% and the activity at 10 µM was found to be 21.9%.

With `O=C(COc1ccccc1C1CCCCC1)Nc1ccc(Cl)cc1C(=O)O` [Example 17, 5-chloro-2-{[(2-cyclohexylphenoxy)acetyl]amino}benzoic acid], the activity at 2.5 µM was found to be 52.8% and the activity at 10 µM turned out to be 0.8%.

`CC(C)(C)c1ccc(OCC(=O)Nc2ccc(Cl)cc2C(=O)O)cc1` [Example 18, 2-{[(4-tert-butylphenoxy)acetyl]amino}-5-chlorobenzoic acid]: the activity at 2.5 µM came out at 81.4% and the activity at 10 µM came to 16.1%.

In the case of `O=C(COc1ccc(-c2ccccc2)cc1)Nc1ccc(Cl)cc1C(=O)O` [Example 19, 2-{[(biphenyl-4-yloxy)acetyl]amino}-5-chlorobenzoic acid], the activity at 2.5 µM was 72.4% and the activity at 10 µM turned out to be 2.5%.

`O=C(COc1cccc(-c2ccccc2)c1)Nc1ccc(Cl)cc1C(=O)O` [Example 20, 2-{[(biphenyl-3-yloxy)acetyl]amino}-5-chlorobenzoic acid]: the activity at 2.5 µM was found to be 55.7% and the activity at 10 µM came to 1.9%.

Regarding `O=C(COc1ccc(C23CC4CC(CC(C4)C2)C3)cc1)Nc1ccc(Cl)cc1C(=O)O` [Example 21, 2-({[4-(adamantan-1-yl)phenoxy]acetyl}amino)-5-chlorobenzoic acid], the activity at 2.5 µM amounted to 10% and the activity at 10 µM came out at 0.3%.

For the compound `O=C(COc1cccc(-c2ccoc2)c1)Nc1ccc(-c2ccccc2)cc1C(=O)O` [Example 22, 4-({[3-(furan-3-yl)phenoxy]acetyl}amino)biphenyl-3-carboxylic acid], the activity at 2.5 µM turned out to be 29.9% and the activity at 10 µM came to 0.4%.

On to `Cn1c(C(=O)Nc2ccc(Cl)cc2C(=O)O)cc2cc(Br)ccc21` [Example 23, 2-{[(5-bromo-1-methyl-1H-indol-2-yl)carbonyl]amino}-5-chlorobenzoic acid], for which the activity at 2.5 µM was 97.3% and the activity at 10 µM was found to be 1.8%.

As for `O=C(Cn1ccc2cc(Br)ccc21)Nc1ccc(Cl)cc1C(=O)O` [Example 24, 2-{[(5-bromo-1H-indol-1-yl)acetyl]amino}-5-chlorobenzoic acid], the activity at 2.5 µM was determined as 102% and the activity at 10 µM was found to be 19.1%.

Consider `O=C(COc1cccc(C2=CCCCC2)c1)Nc1ccc(Cl)cc1C(=O)O` [Example 25, 5-chloro-2-({[3-(cyclohex-1-en-1-yl)phenoxy]acetyl}amino)benzoic acid], for which the activity at 2.5 µM is 85.8% and the activity at 10 µM is 0%.

Turning to `O=C(COc1cccc(C2CCCCC2)c1)Nc1ccc(Cl)cc1C(=O)O` [Example 26, 5-chloro-2-{[(3-cyclohexylphenoxy)acetyl]amino}benzoic acid], the activity at 2.5 µM was found to be 98% and the activity at 10 µM worked out at 0.6%.

In the case of `Cc1cccc(-c2ccc(NC(=O)COc3cccc(-c4ccoc4)c3)c(C(=O)O)c2)c1` [Example 27, 4-({[3-(furan-3-yl)phenoxy]acetyl}amino)-3′-methylbiphenyl-3-carboxylic acid], the activity at 2.5 µM was 69.1% and the activity at 10 µM worked out at 0.7%.

With `Cc1cc(C)cc(-c2ccc(NC(=O)COc3cccc(-c4ccoc4)c3)c(C(=O)O)c2)c1` [Example 28, 4-({[3-(furan-3-yl)phenoxy]acetyl}amino)-3′,5′-dimethylbiphenyl-3-carboxylic acid], the activity at 2.5 µM was determined as 33.6% and the activity at 10 µM was 0.5%.
